From patent US10202387B2, “Heterocyclyl linked imidazopyridazine derivatives as PI3KB inhibitors” (Janssen Pharmaceutica NV, priority 2014, dated 2019)

How the values were obtained:
[1] = biological target: T1, MTOR_h (Homo sapiens, UniProt P42345); assay: Enzyme binding assay (KINOMEscan); conditions: DiscoveRx
T1 construct: purchased DiscoveRx Corporation, San Diego (KINOMEscan service)
Method: (§1) Enzyme Binding Assays (KINOMEscan®)
(§2) Kinase enzyme binding affinities of compounds disclosed herein were determined using the KINOMEscan technology performed by DiscoveRx Corporation, San Diego, Calif., USA (www.kinomescan.com). Table A reports the obtained Kd values (nM), with the Kd being the inhibitor binding constant: […]

[2] = biological target: T2, PIK3Cδ_h (Homo sapiens, UniProt O00329); assay: Enzyme binding assay (KINOMEscan); conditions: DiscoveRx
T2 construct: purchased DiscoveRx Corporation, San Diego (KINOMEscan service)
T2 sequence (O00329 1-1044): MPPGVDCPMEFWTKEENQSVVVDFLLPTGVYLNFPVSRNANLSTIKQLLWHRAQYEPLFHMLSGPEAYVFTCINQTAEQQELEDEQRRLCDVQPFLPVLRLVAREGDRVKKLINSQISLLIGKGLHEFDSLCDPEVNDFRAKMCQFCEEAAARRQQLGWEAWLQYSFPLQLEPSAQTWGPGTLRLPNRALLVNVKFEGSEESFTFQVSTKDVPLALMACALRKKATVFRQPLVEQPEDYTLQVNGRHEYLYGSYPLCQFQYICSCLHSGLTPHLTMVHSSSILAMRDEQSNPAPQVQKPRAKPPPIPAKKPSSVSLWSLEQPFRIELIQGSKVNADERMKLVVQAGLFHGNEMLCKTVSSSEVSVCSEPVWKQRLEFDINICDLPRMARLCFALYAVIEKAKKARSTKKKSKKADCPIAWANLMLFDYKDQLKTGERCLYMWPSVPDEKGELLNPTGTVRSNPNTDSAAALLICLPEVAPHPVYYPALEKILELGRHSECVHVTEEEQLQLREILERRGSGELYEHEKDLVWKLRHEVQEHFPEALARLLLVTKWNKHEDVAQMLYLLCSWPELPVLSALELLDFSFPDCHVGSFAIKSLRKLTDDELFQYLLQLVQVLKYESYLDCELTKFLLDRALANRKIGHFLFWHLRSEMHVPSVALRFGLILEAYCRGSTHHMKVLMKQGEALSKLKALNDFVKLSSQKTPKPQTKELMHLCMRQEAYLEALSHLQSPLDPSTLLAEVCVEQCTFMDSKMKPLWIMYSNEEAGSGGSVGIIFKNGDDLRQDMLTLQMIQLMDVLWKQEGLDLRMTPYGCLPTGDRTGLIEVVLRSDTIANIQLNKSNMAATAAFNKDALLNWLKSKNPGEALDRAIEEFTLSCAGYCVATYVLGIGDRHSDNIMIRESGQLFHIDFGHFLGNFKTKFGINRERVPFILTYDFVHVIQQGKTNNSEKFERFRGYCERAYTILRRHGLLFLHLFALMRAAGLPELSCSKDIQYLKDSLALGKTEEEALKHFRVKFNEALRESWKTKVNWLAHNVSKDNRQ
Method: as §1, §2

[3] = biological target: T3, PIK3Cγ_h (Homo sapiens, UniProt P48736); assay: Enzyme binding assay (KINOMEscan); conditions: DiscoveRx
T3 construct: purchased DiscoveRx Corporation, San Diego (KINOMEscan service)
T3 sequence (P48736 whole entry): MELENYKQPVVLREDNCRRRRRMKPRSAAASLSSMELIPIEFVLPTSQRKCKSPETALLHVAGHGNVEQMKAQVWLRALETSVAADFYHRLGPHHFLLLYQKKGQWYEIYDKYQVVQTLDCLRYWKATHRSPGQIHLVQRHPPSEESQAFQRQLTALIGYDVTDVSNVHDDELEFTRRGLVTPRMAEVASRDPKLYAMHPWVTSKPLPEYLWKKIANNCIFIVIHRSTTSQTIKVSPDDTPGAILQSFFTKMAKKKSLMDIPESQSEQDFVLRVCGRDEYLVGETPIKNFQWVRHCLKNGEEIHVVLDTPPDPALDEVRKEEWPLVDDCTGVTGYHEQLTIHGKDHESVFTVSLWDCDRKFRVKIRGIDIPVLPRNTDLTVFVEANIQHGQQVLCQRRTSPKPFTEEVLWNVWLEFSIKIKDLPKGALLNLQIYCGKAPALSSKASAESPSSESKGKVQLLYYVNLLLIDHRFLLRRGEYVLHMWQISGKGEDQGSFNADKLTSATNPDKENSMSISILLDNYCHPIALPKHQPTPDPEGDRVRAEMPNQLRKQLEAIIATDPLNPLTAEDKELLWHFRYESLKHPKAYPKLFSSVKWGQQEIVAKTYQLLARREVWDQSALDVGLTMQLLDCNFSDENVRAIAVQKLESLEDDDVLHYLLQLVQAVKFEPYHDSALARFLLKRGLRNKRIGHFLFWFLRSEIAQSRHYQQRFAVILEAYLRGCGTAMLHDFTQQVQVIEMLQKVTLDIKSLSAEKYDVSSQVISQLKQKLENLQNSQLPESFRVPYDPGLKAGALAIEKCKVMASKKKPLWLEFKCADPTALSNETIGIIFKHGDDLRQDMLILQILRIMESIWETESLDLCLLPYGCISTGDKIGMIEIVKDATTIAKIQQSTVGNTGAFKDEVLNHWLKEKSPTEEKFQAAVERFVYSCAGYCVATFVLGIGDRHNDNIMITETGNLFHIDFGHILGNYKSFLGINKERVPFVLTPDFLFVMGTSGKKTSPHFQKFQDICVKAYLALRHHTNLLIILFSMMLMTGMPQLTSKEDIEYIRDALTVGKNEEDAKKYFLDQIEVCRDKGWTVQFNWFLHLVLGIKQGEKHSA
Method: as §1, §2

[4] = biological target: T4, PIK3Cα_h (Homo sapiens, UniProt P42336); assay: Enzyme binding assay (KINOMEscan); conditions: DiscoveRx
T4 construct: purchased DiscoveRx Corporation, San Diego (KINOMEscan service)
T4 sequence (P42336 whole entry): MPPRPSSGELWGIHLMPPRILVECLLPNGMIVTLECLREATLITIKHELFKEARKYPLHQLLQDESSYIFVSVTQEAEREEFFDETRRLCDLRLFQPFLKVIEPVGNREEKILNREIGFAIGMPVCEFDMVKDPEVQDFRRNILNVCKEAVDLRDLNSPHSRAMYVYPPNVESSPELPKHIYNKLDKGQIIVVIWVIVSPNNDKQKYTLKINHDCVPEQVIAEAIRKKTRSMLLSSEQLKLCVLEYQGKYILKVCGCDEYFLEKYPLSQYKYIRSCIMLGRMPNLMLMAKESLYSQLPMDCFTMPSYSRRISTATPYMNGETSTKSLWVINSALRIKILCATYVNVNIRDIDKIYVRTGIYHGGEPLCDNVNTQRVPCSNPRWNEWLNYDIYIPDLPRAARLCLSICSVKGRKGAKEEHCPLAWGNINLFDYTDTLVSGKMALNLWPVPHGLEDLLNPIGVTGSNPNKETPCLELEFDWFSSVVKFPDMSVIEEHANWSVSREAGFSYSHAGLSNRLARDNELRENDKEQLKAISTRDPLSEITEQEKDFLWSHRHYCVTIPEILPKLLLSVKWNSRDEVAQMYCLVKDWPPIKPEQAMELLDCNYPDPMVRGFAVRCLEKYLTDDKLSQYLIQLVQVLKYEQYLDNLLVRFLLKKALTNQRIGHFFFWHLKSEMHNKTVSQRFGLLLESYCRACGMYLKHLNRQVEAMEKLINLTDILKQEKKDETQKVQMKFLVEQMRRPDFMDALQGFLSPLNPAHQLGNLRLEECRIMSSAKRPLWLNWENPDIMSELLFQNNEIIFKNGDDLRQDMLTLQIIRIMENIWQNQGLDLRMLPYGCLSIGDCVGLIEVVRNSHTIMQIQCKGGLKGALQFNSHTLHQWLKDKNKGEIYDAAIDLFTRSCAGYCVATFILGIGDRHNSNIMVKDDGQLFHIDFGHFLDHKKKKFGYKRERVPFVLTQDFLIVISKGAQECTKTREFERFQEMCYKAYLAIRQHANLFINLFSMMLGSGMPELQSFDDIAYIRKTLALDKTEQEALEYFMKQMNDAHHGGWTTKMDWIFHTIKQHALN
Method: as §1, §2

[5] = biological target: T5, PIK3Cβ_h (Homo sapiens, UniProt P42338); assay: Enzyme binding assay (KINOMEscan); conditions: DiscoveRx
T5 construct: purchased DiscoveRx Corporation, San Diego (KINOMEscan service)
T5 sequence (P42338 whole entry): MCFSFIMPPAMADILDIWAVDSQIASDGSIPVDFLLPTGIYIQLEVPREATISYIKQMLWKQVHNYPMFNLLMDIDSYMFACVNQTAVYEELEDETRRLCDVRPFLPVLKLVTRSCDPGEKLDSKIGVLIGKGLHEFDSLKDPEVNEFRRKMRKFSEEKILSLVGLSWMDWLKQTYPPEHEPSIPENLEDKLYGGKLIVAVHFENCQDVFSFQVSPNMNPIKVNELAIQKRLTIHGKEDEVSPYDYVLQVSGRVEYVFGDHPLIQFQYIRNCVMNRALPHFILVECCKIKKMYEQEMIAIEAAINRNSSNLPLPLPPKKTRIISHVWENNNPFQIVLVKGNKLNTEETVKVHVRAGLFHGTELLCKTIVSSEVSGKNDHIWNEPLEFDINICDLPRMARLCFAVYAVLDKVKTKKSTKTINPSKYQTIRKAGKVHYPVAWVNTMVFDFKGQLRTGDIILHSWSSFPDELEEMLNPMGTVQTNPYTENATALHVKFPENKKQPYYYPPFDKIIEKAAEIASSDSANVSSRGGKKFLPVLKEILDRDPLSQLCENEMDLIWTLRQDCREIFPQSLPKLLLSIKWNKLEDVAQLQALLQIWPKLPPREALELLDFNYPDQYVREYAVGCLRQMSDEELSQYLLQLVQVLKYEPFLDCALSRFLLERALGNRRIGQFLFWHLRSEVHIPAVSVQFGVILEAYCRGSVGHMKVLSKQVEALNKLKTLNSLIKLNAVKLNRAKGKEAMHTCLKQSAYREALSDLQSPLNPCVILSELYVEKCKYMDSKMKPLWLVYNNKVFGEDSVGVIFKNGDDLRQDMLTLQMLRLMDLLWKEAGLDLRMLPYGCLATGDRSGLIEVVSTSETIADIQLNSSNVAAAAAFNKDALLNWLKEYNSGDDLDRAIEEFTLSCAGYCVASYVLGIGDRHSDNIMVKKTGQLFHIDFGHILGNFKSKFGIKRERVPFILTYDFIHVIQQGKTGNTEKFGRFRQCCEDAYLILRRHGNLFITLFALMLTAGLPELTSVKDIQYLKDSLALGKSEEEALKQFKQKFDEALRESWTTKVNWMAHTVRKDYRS
Method: as §1, §2

[6] = tested on: Akt phosphorylated at Ser473 in PC-3 cells; assay: Cellular assay: phosphorylation of Akt (Ser473) in PC-3 cells, MSD ELISA; assay type: cell-based; conditions: Homo sapiens, 1 h, 60 min incubation with compound, read-out: IC50 pAkt_S473
Method: (§3) Cellular activity of PI3Kβ inhibitors was determined by quantifying the phosphorylation of Akt in PC-3 cells. Akt phosphorylated at Ser473 and Thr308 were measured using an enzyme-linked immunosorbent assay (ELISA; Meso Scale Discovery (MSD). Gaithersburg, Md.) and specific primary antibodies from MSD.
(§4) On day 1, PC3 cells (ATCC […]) were seeded into PerkinElmer MW96 plates at 25.000 cells per well, in 75 μl complete culture medium (DMEM (Dulbecco's Modified Eagle's Medium) high glucose. AQmedia™, D0819, Sigma-Aldrich) containing 10% heat inactivated FCS (Fetal Bovine Serum) and incubated at 37° C., 5% CO2 during 24 hours. On day 2, compound or DMSO (dimethyl sulfoxide) (0.3%) was added and cells were further incubated for 60 min at 37° C., 5% CO2 in a total volume of 100 μl of medium.
(§5) The phosphoprotein assay was executed according to vendor instructions in the Phospho-Akt (Ser473) Assay Whole Cell Lysate Kit (MSD #K15100D-3) and the Phospho-Akt (Thr308) Assay Whole Cell Lysate Kit (MSD #K151DYD-3) using the lysis, blocking and wash buffer provided.
(§6) Briefly, at the end of the cell treatment period, media were removed by aspiration and adherent cells were lysed in 50 μl ice-cold lysis buffer. MSD plates are supplied pre-coated with capture antibodies for Phospho-Akt (Ser473 and Thr308). After blocking, lysates from tissue culture plates were added and plates were washed. Then, a solution containing the detection antibody (anti-total Akt conjugated with an electrochemiluminescent compound-MSD Sulfo-tag label) was added. The signals were detected using an MSD SECTOR Imager 6000 and are proportional to the phospho-Akt titres.
(§7) Data were processed. The percentage of inhibition was plotted against the log concentration of test compounds, and the sigmoidal log concentration-effect curve of best fit was calculated by nonlinear regression analysis. From these concentration-response curves, the IC50 values were calculated. Five concentrations were used for curve fitting.

[7] = tested on: Akt phosphorylated at Thr308 in PC-3 cells; assay: Cellular assay: phosphorylation of Akt (Thr308) in PC-3 cells, MSD ELISA; assay type: cell-based; conditions: Homo sapiens, 1 h, 60 min incubation with compound, read-out: IC50 pAkt_Thr308
Method: as §3, §4, §5, §6, §7

Row | Structure (SMILES) | Kd [1] | Kd [2] | Kd [3] | Kd [4] | Kd [5] | melting point | IC50 [6] | IC50 [7]
1 | Cc1c(Cc2c(CN3CC4(C3)CS(=O)(=O)C4)nc3c(-c4ncc[nH]4)cc(N4CCOCC4)nn23)cccc1C(F)(F)F [Compound 20] | 9330 nM | 32 nM | 1550 nM | 275 nM | 1.3 nM | 150 °C | ~34 nM | ~20 nM
2 | Cc1c(Cc2c(CN3CCC(S(C)(=O)=O)CC3)nc3c(N)cc(N4CCOCC4)nn23)cccc1C(F)(F)F [Compound 4] | > 30200 nM | 166 nM | > 30200 nM | 3980 nM | 2.3 nM | 188 °C | 18 nM | ~33 nM

Results, then the molecule that gave them:

Row | Kd [1] | Kd [2] | Kd [3] | Kd [4] | Kd [5] | melting point | IC50 [6] | IC50 [7] | Structure (SMILES)
3 | 1380 nM | 62 nM | > 30200 nM | 2040 nM | 0.4 nM | 130 °C | 10 nM | 17 nM | Cc1c(F)cccc1Cc1c(CN2CCS(=O)(=O)CC2)nc2c(N)cc(N3CCOCC3)nn12 [Compound 43]
4 | 1050 nM | 275 nM | 537 nM | 1700 nM | 5.4 nM | 172 °C | 316 nM | 145 nM | CCc1c(F)cccc1Cc1c(CN2CC(O)C2)nc2c(N)cc(N3CCOCC3)nn12 [Compound 44]
5 | > 30200 nM | 372 nM | 10700 nM | 692 nM | 3 nM | 216 °C | 275 nM | ~62 nM | Cc1c(Cc2c(CN3CC4(C3)CS(=O)(=O)C4)nc3c(C(N)=O)cc(N4CCOCC4)nn23)cccc1C(F)(F)F [Compound 26]
